Experimental data from ChEMBL document CHEMBL1129124, “Thromboxane modulating agents. 2. Thromboxane receptor antagonists derived from the thromboxane synthase inhibitor dazmegrel” (Bioorg Med Chem Lett, 1996).

Experiments:
Thromboxane A2 receptor = target: T1, Thromboxane A2 receptor (Rattus norvegicus, UniProt P34978); experiment: Compound was tested for TXA2 receptor antagonism by measuring its ability to inhibit contraction of rat aorta induced by the stable TXA2 agonist U-46,619 at 1 umol; assay type: functional, tissue-based; conditions: read-out: pA2 (converted)
T1 sequence (P34978 whole entry): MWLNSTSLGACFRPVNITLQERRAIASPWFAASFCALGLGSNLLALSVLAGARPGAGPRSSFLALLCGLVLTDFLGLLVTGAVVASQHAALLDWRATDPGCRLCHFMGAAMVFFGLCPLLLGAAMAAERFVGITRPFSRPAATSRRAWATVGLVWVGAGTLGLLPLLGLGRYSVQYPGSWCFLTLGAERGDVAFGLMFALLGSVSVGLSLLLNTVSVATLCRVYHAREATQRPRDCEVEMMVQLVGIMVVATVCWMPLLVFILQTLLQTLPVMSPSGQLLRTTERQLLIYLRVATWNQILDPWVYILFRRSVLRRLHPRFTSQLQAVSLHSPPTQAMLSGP

Thromboxane-A synthase = target: T2, Thromboxane-A synthase (Homo sapiens, UniProt P24557); experiment: Inhibitory activity against human platelet microsomal TXA2 synthase
T2 sequence (P24557 whole entry): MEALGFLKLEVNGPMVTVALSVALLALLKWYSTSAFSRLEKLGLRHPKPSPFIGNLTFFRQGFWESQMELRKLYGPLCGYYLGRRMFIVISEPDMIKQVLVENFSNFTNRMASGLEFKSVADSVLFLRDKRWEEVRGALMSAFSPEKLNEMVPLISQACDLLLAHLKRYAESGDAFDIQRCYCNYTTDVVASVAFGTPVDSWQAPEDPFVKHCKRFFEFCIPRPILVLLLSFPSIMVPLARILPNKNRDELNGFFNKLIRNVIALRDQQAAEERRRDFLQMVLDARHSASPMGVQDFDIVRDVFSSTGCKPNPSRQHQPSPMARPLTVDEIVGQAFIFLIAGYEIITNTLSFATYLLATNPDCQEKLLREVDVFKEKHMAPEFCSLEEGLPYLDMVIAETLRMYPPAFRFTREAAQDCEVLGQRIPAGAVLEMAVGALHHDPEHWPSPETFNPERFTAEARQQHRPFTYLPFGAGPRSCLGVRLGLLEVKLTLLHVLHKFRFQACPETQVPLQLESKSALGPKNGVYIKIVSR

Kb (Thromboxane A2 receptor) [nM] | IC50 (Thromboxane-A synthase) [nM] | SMILES
100 | – | O=C(O)CCCc1ccc(NS(=O)(=O)c2ccc(Cl)cc2)cc1
3.72 | – | O=C(O)CCn1ccc2cc(NS(=O)(=O)c3ccc(F)cc3)ccc21
1.41 | 48 | O=C(O)CCn1cc(Cc2cccnc2)c2cc(NS(=O)(=O)c3ccc(F)cc3)ccc21
0.234 | – | O=C(O)CCn1cc(Cc2ccc(F)cc2)c2cc(NS(=O)(=O)c3ccc(Cl)cc3)ccc21
0.269 | – | Cc1ccc(S(=O)(=O)Nc2ccc3c(c2)c(Cc2ccc(F)cc2)cn3CCC(=O)O)cc1
> 1000 | – | Cc1c(Cn2ccnc2)c2ccccc2n1CCC(=O)O [DAZMEGREL]
3800 | 19 | Cc1c(Cn2ccnc2)c2cc(NS(=O)(=O)c3ccc(F)cc3)ccc2n1CCC(=O)O
2.75 | – | O=C(O)CCn1ccc2cc(NS(=O)(=O)c3ccc(Cl)cc3)ccc21
6.31 | 34 | O=C(O)CCn1cc(Cn2ccnc2)c2cc(NS(=O)(=O)c3ccc(F)cc3)ccc21
0.479 | – | O=C(O)CCn1cc(Cc2ccc(F)cc2)c2cc(NS(=O)(=O)c3ccc(F)cc3)ccc21
0.676 | – | O=C(O)CCn1cc(Cc2ccc(F)cc2)c2cc(NS(=O)(=O)c3ccccc3)ccc21
0.174 | – | COc1ccc(S(=O)(=O)Nc2ccc3c(c2)c(Cc2ccc(F)cc2)cn3CCC(=O)O)cc1
